Assay results published in PMC3805709 (Nature chemical biology, 2013).

Assays:
CLC-ec1 [1] = biological target: CLC-ec1 (Escherichia coli, UniProt P37019); test: biochemical
CLC-ec1 [2] = biological target: CLC-ec1 (Escherichia coli, UniProt P37019, E148A); test: biochemical
Sequence of CLC-ec1 (Escherichia coli, UniProt P37019, E148A) (P37019 whole entry E148A): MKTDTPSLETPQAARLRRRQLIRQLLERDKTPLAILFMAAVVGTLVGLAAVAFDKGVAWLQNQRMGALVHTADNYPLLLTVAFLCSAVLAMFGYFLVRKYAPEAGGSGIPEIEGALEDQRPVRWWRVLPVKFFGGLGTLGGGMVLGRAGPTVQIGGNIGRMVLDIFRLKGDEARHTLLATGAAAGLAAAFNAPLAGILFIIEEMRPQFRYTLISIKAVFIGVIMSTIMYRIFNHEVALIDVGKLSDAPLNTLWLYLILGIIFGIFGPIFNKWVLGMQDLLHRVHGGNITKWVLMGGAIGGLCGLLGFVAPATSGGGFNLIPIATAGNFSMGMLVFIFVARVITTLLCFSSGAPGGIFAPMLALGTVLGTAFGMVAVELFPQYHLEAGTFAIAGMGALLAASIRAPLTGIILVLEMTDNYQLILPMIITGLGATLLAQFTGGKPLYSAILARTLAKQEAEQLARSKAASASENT

Sequence of CLC-ec1 (Escherichia coli, UniProt P37019) (P37019 whole entry): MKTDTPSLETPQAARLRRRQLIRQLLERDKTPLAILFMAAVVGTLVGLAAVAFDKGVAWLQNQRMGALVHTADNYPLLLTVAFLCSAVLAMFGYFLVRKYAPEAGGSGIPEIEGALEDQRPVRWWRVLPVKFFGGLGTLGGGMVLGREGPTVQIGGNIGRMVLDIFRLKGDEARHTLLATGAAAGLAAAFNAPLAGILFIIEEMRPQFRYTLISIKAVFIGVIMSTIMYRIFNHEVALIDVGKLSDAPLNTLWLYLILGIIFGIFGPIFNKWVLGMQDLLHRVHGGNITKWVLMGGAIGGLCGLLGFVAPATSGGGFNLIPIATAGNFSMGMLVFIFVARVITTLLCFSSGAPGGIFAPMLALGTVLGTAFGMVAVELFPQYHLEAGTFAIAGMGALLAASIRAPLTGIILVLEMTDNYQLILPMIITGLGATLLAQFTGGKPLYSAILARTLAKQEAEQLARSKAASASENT

Row | Kd (CLC-ec1 [1]) [µM] | Kd (CLC-ec1 [2]) [µM] | Structure (SMILES)
1 | 600 |  | Cl [Cl^−]
2 | 1000 | 180 | F [F^−]
